Experiments:
ADAM-10 = biological target: T1, ADAM-10 (UniProt O14672); experiment: ADAM-10 enzyme assay, cleavage of a fluorogenic 10-residue peptide; format: biochemical, mouse or human (mADAM-10 or hADAM-10); settings: in vitro;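 further: mouse or human ADAM-10 at 5 nM active enzyme, pH 8.0 HEPES buffer with CaCl2 and NP-40, compounds titrated 100 µM down to 0.5 nM, fluorescence read after 16 h at room temperature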
T1 sequence (O14672 1-748): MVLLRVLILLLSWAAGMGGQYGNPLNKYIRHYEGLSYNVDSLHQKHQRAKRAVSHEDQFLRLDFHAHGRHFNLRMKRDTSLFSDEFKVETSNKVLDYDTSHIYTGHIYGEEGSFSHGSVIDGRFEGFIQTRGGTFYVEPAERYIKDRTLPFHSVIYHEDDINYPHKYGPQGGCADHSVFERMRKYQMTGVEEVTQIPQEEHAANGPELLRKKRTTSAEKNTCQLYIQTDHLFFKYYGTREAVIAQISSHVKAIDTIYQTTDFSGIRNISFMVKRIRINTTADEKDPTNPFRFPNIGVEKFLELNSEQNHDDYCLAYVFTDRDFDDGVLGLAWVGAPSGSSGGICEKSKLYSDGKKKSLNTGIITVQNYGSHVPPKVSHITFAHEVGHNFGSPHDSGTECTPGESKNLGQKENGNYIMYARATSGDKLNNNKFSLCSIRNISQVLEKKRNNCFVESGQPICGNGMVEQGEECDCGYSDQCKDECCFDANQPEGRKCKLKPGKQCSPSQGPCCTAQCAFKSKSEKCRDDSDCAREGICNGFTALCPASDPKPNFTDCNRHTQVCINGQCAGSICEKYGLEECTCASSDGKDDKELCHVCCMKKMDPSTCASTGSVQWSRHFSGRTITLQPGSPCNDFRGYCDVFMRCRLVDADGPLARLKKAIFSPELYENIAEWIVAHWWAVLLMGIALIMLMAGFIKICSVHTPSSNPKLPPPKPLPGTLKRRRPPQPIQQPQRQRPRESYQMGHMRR
Experimental: mADAM-10 or hADAM-10 activity was measured as the ability to cleave a 10-residue peptide (DABCYL-Leu-Leu-Ala-Gln-Lys-*-LeuArg-Ser-Ser-Arg-EDANS). […] Enzyme was diluted to a final active concentration of 5 nM in Buffer A (50 mM HEPES 8.0, 100 mM NaCl, 1 mM CaCl2 and 0.01% NP-40). Serial dilutions for compounds were performed ranging from 100 μM to 0.5 nM using a Beckman Biomek 2000 in polypropylene plates (Greiner). […] This reaction was incubated for 16 hr at RT and fluorescence was read using identical conditions.

[1] = biological target: T2, MMP-2 (72 kDa gelatinase, gelatinase A) (Homo sapiens, UniProt P08253); experiment: In vitro metalloprotease inhibition, MMP-2; format: biochemical
T2 sequence (P08253 110-660): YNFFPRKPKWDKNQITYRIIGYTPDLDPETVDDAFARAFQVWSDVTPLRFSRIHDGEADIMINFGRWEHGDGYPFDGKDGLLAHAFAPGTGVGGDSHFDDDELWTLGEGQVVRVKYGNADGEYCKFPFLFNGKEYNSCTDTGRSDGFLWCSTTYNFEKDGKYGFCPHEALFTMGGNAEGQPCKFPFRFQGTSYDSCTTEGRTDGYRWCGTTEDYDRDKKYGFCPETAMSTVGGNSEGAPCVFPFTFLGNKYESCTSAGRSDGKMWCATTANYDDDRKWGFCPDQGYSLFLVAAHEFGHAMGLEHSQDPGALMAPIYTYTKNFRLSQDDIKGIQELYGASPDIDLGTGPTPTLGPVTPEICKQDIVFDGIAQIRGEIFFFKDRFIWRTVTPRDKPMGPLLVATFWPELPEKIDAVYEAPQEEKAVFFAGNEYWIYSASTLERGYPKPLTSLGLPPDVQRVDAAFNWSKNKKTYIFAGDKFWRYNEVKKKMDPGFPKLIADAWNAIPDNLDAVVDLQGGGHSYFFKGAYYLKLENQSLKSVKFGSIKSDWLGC

MMP-13 (collagenase-3) = MMP-13 (collagenase-3) (Homo sapiens, UniProt P45452); experiment: In vitro metalloprotease inhibition, MMP-13; format: biochemical
MMP-3 (Stromelysin-1) = MMP-3 (Stromelysin-1) (Homo sapiens, UniProt P08254); experiment: In vitro metalloprotease inhibition, MMP-3; format: biochemical
Text: (§1) Blank cells indicate lack of data only.

[2] = biological target: T3, MMP-1 (Fibroblast collagenase) (Homo sapiens, UniProt P03956); experiment: In vitro metalloprotease inhibition, MMP-1; format: biochemical
T3 sequence (P03956 100-469): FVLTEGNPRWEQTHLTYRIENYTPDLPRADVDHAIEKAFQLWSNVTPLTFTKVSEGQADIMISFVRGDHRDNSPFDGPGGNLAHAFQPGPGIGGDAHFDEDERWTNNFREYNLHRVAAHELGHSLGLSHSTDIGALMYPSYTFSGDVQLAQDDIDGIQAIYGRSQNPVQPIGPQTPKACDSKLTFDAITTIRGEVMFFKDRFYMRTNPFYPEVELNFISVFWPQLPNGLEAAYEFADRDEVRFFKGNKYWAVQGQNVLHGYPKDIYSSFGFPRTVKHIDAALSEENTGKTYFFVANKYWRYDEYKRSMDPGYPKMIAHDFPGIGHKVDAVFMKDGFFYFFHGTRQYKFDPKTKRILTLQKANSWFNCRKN
Text: as §1

Sequence of MMP-3 (Stromelysin-1) (P08254 100-477, species assumed): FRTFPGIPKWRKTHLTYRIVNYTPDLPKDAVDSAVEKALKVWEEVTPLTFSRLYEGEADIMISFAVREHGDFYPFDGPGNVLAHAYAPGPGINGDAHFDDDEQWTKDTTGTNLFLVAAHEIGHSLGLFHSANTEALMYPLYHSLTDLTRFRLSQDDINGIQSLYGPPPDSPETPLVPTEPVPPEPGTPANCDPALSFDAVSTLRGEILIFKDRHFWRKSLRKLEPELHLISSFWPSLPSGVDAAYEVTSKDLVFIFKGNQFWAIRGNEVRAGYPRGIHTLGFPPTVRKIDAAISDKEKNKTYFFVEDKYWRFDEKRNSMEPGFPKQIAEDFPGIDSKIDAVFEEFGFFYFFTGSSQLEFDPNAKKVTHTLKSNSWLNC

IC50 (ADAM-10) [nM] | IC50 [1] [nM] | IC50 (MMP-13 (collagenase-3)) [nM] | IC50 (MMP-3 (Stromelysin-1)) [nM] | IC50 [2] [nM] | Structure (SMILES)
< 50 | < 50 | < 50 | < 50 | 50 to 1000 | COCCOC(=O)N1CCN(S(=O)(=O)c2ccc(Oc3ccc4c(c3)CCCC4)nc2)[C@@H](C(=O)NO)C1 [Entry 64]
< 50 | < 50 | < 50 | 50 to 1000 | 1000 to 20000 | O=C(CN1CCOCC1)NC(=O)N1CCN(S(=O)(=O)c2cc(F)c(Oc3ccc(Cl)cc3)c(F)c2)[C@@H](C(=O)NO)C1 [Entry 46]
< 50 | < 50 | < 50 | 1000 to 20000 | 1000 to 20000 | O=C(NO)[C@H]1CN(C(=O)c2ccncc2)CCN1S(=O)(=O)c1cc(F)c(Oc2ccc(Cl)cc2)c(F)c1 [Entry 42]
< 50 | < 50 | 1000 to 20000 | 1000 to 20000 | 1000 to 20000 | CC(C)(C)OC(=O)N1CCN(S(=O)(=O)c2cc(F)c(Oc3ccc(F)cc3)c(F)c2)[C@@H](C(=O)NO)C1 [Entry 9]
< 50 | < 50 | < 50 | 50 to 1000 | 1000 to 20000 | CN1CCC(OC(=O)N2CCN(S(=O)(=O)c3cc(F)c(Oc4ccc(Cl)cc4)c(F)c3)[C@@H](C(=O)NO)C2)CC1 [Entry 22]
< 50 | < 50 | < 50 | 50 to 1000 | 1000 to 20000 | COCCN1CCN(S(=O)(=O)c2cc(F)c(Oc3ccc(Cl)cc3)c(F)c2)[C@@H](C(=O)NO)C1 [Entry 29]
50 to 1000 | 1000 to 20000 | 1000 to 20000 | > 20000 | > 20000 | O=C(NO)[C@H]1CN(S(=O)(=O)Cc2cc(Cl)cc(Cl)c2)CCN1S(=O)(=O)c1cc(F)c(Oc2ccc(Cl)cc2)c(F)c1 [Entry 61]
< 50 | < 50 | < 50 | 50 to 1000 | 1000 to 20000 | O=C(CCl)NC(=O)N1CCN(S(=O)(=O)c2cc(F)c(Oc3ccc(Cl)cc3)c(F)c2)[C@@H](C(=O)NO)C1 [Entry 33]
50 to 1000 | 50 to 1000 | 50 to 1000 | 1000 to 20000 | 1000 to 20000 | O=C(NO)[C@H]1CN(C(=O)c2ccc(-c3ccccc3)cc2)CCN1S(=O)(=O)c1cc(F)c(Oc2ccc(Cl)cc2)c(F)c1 [Entry 51]
< 50 | < 50 | < 50 | < 50 | < 50 | O=C(NO)[C@H]1CN(C(=O)N2CCOCC2)CCN1S(=O)(=O)c1ccc(Oc2ccc(F)cc2)cc1 [Entry 2]
< 50 | < 50 | < 50 | < 50 | 50 to 1000 | CN1CCN(C(=O)NS(=O)(=O)N2CCN(S(=O)(=O)c3cc(F)c(Oc4ccc(Cl)cc4)c(F)c3)[C@@H](C(=O)NO)C2)CC1 [Entry 39]
< 50 | < 50 | < 50 | 50 to 1000 | > 20000 | CNC(=O)CN1CCN(S(=O)(=O)c2cc(F)c(Oc3ccc(Cl)cc3)c(F)c2)[C@@H](C(=O)NO)C1 [Entry 19]
< 50 | < 50 | < 50 | 1000 to 20000 | 1000 to 20000 | O=C(NO)[C@H]1CN(C(=O)Cc2ccncc2)CCN1S(=O)(=O)c1cc(F)c(Oc2ccc(Cl)cc2)c(F)c1 [Entry 52]
< 50 | < 50 | < 50 | 50 to 1000 | 1000 to 20000 | O=C(NO)[C@H]1CN(C(=O)OCCN2CCCCC2)CCN1S(=O)(=O)c1cc(F)c(Oc2ccc(Cl)cc2)c(F)c1 [Entry 27]
< 50 | < 50 | < 50 | < 50 | 50 to 1000 | COCCOC(=O)N1CCN(S(=O)(=O)c2ccc(Oc3ccc(Cl)cc3)c(F)c2)[C@@H](C(=O)NO)C1 [Entry 4]
< 50 | < 50 | < 50 | 50 to 1000 | 1000 to 20000 | O=C(NO)[C@H]1CN(C(=O)OCc2ccccc2)CCN1S(=O)(=O)c1cc(F)c(Oc2ccc(Cl)cc2)c(F)c1 [Entry 32]
< 50 | < 50 | < 50 | 1000 to 20000 | > 20000 | CN1CCN(C(=O)N2CCN(S(=O)(=O)c3cc(F)c(Oc4ccc(Cl)cc4)c(F)c3)[C@@H](C(=O)NO)C2)CC1 [Entry 16]
< 50 | < 50 | < 50 | 1000 to 20000 | > 20000 | CN(C)C(=O)CN1CCN(S(=O)(=O)c2cc(F)c(Oc3ccc(Cl)cc3)c(F)c2)[C@@H](C(=O)NO)C1 [Entry 20]
< 50 | < 50 | < 50 | 50 to 1000 | > 20000 | CCCCCCC(=O)N1CCN(S(=O)(=O)c2cc(F)c(Oc3ccc(Cl)cc3)c(F)c2)[C@@H](C(=O)NO)C1 [Entry 43]
< 50 | < 50 | < 50 | 1000 to 20000 | > 20000 | CCOC(=O)N1CCN(CC(=O)N2CCN(S(=O)(=O)c3cc(F)c(Oc4ccc(Cl)cc4)c(F)c3)[C@@H](C(=O)NO)C2)CC1 [Entry 23]
< 50 | < 50 | < 50 | 50 to 1000 | 1000 to 20000 | COCCOC(=O)N1CCN(S(=O)(=O)c2cc(F)c(Oc3ccccc3)c(F)c2)[C@@H](C(=O)NO)C1 [Entry 40]
50 to 1000 | < 50 | < 50 | 1000 to 20000 | > 20000 | CN(C)c1cccc2c(S(=O)(=O)N3CCN(S(=O)(=O)c4cc(F)c(Oc5ccc(Cl)cc5)c(F)c4)[C@@H](C(=O)NO)C3)cccc12 [Entry 60]
< 50 | < 50 | < 50 | 1000 to 20000 | 1000 to 20000 | COCCOC(=O)N1CCN(S(=O)(=O)c2cc(F)c(Oc3ccc(F)cc3)c(F)c2)[C@@H](C(=O)NO)C1 [Entry 10]
< 50 | < 50 | < 50 | 50 to 1000 | 50 to 1000 | O=C(NO)[C@H]1CN(S(=O)(=O)CCN2CCCCC2)CCN1S(=O)(=O)c1cc(F)c(Oc2ccc(Cl)cc2)c(F)c1 [Entry 53]
1000 to 20000 | > 20000 | < 50 | 50 to 1000 | > 20000 | CN(C)c1ccc2ccc(S(=O)(=O)N3CCN(S(=O)(=O)c4cc(F)c(Oc5ccc(Cl)cc5)c(F)c4)[C@@H](C(=O)NO)C3)cc2c1 [Entry 50]
< 50 | < 50 | < 50 | 50 to 1000 | 50 to 1000 | COCCOC(=O)N1CCN(S(=O)(=O)c2ccc(Oc3ccc(C#N)cc3)c(F)c2)[C@@H](C(=O)NO)C1 [Entry 5]
< 50 | < 50 | < 50 | 50 to 1000 | 1000 to 20000 | CN(C)S(=O)(=O)N1CCN(S(=O)(=O)c2cc(F)c(Oc3ccc(Cl)cc3)c(F)c2)[C@@H](C(=O)NO)C1 [Entry 36]
50 to 1000 | < 50 | < 50 | < 50 | < 50 | COCCOC(=O)N1CCN(S(=O)(=O)c2ccc(Oc3ccc(F)cc3)nc2)[C@@H](C(=O)NO)C1 [Entry 65]

Reference: patent publication US7629341B2, “Human ADAM-10 inhibitors” (Symphony Evolution, Inc., priority 2003, dated 2009)
